The results in this text go back to patent US20260176289A1, “SMALL MOLECULE INHIBITORS OF KRAS PROTEINS” (Merck Sharp & Dohme LLC, priority 2022, published 2026).

Assay [1] concerns the target KRAS-G12D (Homo sapiens, UniProt P01116, G12D). Put plainly: SOS-catalyzed nucleotide exchange assay (Procedure A, TR-FRET), KRAS-G12D. The format is biochemical. The note with it: nucleotide exchange, read-out: KRAS G12D GNE IC50. The method in brief: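 Signal ratio (520/495 nm, excitation 340 nm) reports Bodipy-GDP retention on biotinylated RAS after SOS-catalyzed exchange with 3 mM GTP. SOS was 40 nM, except 160 nM for G12V. Room-temperature exchange lasted 60 min (90 min for G12V), following a 60 min compound preincubation.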
Background: Time-resolved FRET reads energy transfer from a long-lived donor to a nearby acceptor.

In assay [2] the test system is MKN-1 cells. Put plainly: Cellular phospho-ERK assay, MKN-1 cells (amplified wild-type KRAS). In kind it is cell-based. As to conditions: Homo sapiens, amplified wild-type KRAS, 2 hours, read-out: MKN1 pERK IC50. An outline of the steps:
(§1)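 Cells seeded at 10,000-15,000 per well were incubated overnight, then exposed to compound for 2 hours at 37 °C in a 10-point, 1:3 series topping at 30 μM final. Lysates were assayed by Alpha SureFire Ultra multiplex for p-ERK and total ERK; IC50 came from a 4-parameter logistic fit of their ratio.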

The subject of assay [3] is PANC08.13 cells. Put plainly: Cellular phospho-ERK assay, PANC08.13 cells (homozygous KRAS-G12D). In kind it is cell-based. The note with it: Homo sapiens, PANC-08-13, KRAS-G12D, 2 hours, read-out: PANC-08.13 pERK IC50. The method in brief: as §1

Sequence of KRAS-G12D (P01116 with tags, fused parts or gaps isoform P01116-2 G12D): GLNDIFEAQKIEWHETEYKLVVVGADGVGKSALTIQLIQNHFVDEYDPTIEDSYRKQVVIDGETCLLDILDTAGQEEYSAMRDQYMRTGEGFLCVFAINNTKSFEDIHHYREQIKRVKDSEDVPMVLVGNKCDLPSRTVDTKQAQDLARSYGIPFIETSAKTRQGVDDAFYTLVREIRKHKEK

The term IC50 denotes the concentration at which inhibition is half-maximal. `C#Cc1c(F)ccc2cc(O)cc(-c3nccc4c5c(N6CCOC[C@@](C)(O)C6)nc(OC[C@@]67CCCN6C[C@H](F)C7)nc5n(C)c34)c12` [Ex-18, (S)-4-(8-(8-ethynyl-7-fluoro-3-hydroxynaphthalen-1-yl)-2-(((2R,7aS)-2-fluorotetrahydro-1H-pyrrolizin-7a(5H)-yl)methoxy)-9-methyl-9H-pyrido[4′,3′:4,5]pyrrolo[2,3-d]pyrimidin-4-yl)-6-methyl-1,4-oxazepan-6-ol]: the values for the IC50 in assay [1], in assay [2] and in assay [3] were 1.15 nM, 7.67 nM and 4.54 nM, respectively.
